Experimental data reported in US6852737B2 (Recordati Ireland Limited, priority 2001, dated 2005).
Several values for one entry are separate records, joined by “and”; a condition that tells them apart may be missing. Identical values can stand only once. Entries after “also recorded” stand apart in the source; their conditions may differ. Counter-ions that a name gives are not always drawn. Marks after values point to notes of the source that are not given here.

How the values were obtained:
[1] = Stability of crystalline forms; type: physicochemical; conditions: hydrochloride
[2] = Hygroscopicity (DVS analysis); type: physicochemical; conditions: 25° C.
Procedure: The hygroscopicity of both crystalline Forms (I) and (II) was measured with DVS analysis by means of a water absorption analyzer (SURFACE MEASUREMENT SYSTEM, Marion, Buckinghamshire, UK) according to the following working conditions: […]

[3] = Relative bioavailability in man; type: in vivo; conditions: for AUC0−t, geom. least square mean / Cmax, geom. least square mean / tmax, median / bioequivalence to Form I: 10 mg tablet; for AUC0−t, geom. least square mean / Cmax, geom. least square mean / tmax, median / time of maximum concentration (tmax) compared to the other crystalline form: single dose; for AUC0−t, geom. least square mean: 16 volunteers; for AUC0−t, geom. least square mean / Cmax, geom. least square mean / tmax, median / time of maximum concentration (tmax) compared to the other crystalline form / bioequivalence to Form I: hydrochloride
Procedure: Blood samples were taken at 15 points from time 0 to 24 h post-dosing and plasma concentrations of lercanidipine were determined with a stereoselective analytical method HPLC-MS/MS as described in Example 19a, as validated for man at the same concentration intervals.

[4] = Bioavailability of crystalline forms in dog; type: in vivo, Beagle dogs
Procedure: A study was carried out on six Beagle dogs to evaluate the bioavailability of crystalline Forms (I) and (II).
Blood samples were taken at given times and plasma concentrations of lercanidipine were determined with a stereoselective analytical method HPLC-MS/MS, according to the following working conditions;
Lercanidipine was extracted from dog plasma by means of a liquid-liquid extraction with a mixture of n-hexane and ethyl ether. The dry residue of the organic phase was taken up with a mixture of methanol and water and a liquid-phase chromatographic separation (LC) was carried out; the two enantiomers of lercanidipine were separated on a CHIROBIOTIC V column (Vancomycin) (particle size […], column size 150×4.6 mm (ASTEC, NJ, USA)) and were detected with a mass spectrometer (MS/MS) by using an electrospray technique.
The analytical method was validated in a concentration range between 0.1 and 20 ng/ml of plasma for both enantiomers. The method has shown to be specific with an accuracy of 15%. The average concentrations of lercanidipine in the tables represent the sum of both enantiomers.

[5] = system: isolated rat aorta; conditions: drug removed from the environment of the aortic tissue for 6 hours; cited from earlier work
[6] = oral administration; cited from earlier work
[7] = 0 h, Mean (dog 2 not included), oral 3 mg/kg
[8] = 0.5 h, Dog 1, oral 3 mg/kg, hydrochloride, 3 mg/kg
[9] = 0.5 h, Dog 3, oral 3 mg/kg, hydrochloride, 3 mg/kg
[10] = 0.5 h, Mean (dog 2 not included), oral 3 mg/kg, hydrochloride, 3 mg/kg
[11] = 1 h, Dog 1, oral 3 mg/kg, hydrochloride, 3 mg/kg
[12] = 1 h, Dog 3, oral 3 mg/kg, hydrochloride, 3 mg/kg
[13] = 1 h, Dog 4, oral 3 mg/kg, hydrochloride, 3 mg/kg
[14] = 1 h, Dog 5, oral 3 mg/kg, hydrochloride, 3 mg/kg
[15] = 1.5 h, Dog 4, oral 3 mg/kg, hydrochloride, 3 mg/kg
[16] = 1.5 h, Dog 6, oral 3 mg/kg, hydrochloride, 3 mg/kg
[17] = 6 h (last sampling time), Mean (dog 2 not included), oral 3 mg/kg, hydrochloride, 3 mg/kg
[18] = Dog 2, oral 3 mg/kg, hydrochloride, 3 mg/kg
[19] = Dog 3, oral 3 mg/kg, hydrochloride, 3 mg/kg
[20] = Dog 4, oral 3 mg/kg, hydrochloride, 3 mg/kg

Structure (SMILES): COC(=O)C1=C(C)NC(C)=C(C(=O)OC(C)(C)CN(C)CCC(c2ccccc2)c2ccccc2)C1c1cccc([N+](=O)[O-])c1 (single isomer, unassigned) [Form (I), lercanidipine hydrochloride]
- stability [1]: good stability; also recorded: stable
- mass change ([2]; 0% RH): −0.3%
- mass change ([2]; 95% RH): +0.15%
- AUC0−t, geom. least square mean [3]: 8.82 ng·h/mL
- Cmax, geom. least square mean [3]: 3.18 ng/mL
- tmax, median [3]: 1.50* h
- time of maximum concentration (tmax) compared to the other crystalline form [3]: shorter time
- concentration in plasma of lercanidipine (S + R) ([4]; 0 h, Dog 1, oral 3 mg/kg): 0.00 ng/mL
- concentration in plasma of lercanidipine (S + R) ([4]; 0 h, Dog 2, oral 3 mg/kg): 0.00 ng/mL
- concentration in plasma of lercanidipine (S + R) ([4]; 0 h, Dog 3, oral 3 mg/kg): 0.00 ng/mL
- concentration in plasma of lercanidipine (S + R) ([4]; 0 h, Dog 4, oral 3 mg/kg): 0.00 ng/mL
- concentration in plasma of lercanidipine (S + R) ([4]; 0 h, Dog 5, oral 3 mg/kg): 0.00 ng/mL
- concentration in plasma of lercanidipine (S + R) ([4]; 0 h, Dog 6, oral 3 mg/kg): 0.00 ng/mL
- concentration in plasma of lercanidipine (S + R) [4, 7]: 0.00 ng/mL
- concentration in plasma of lercanidipine (S + R) [4, 8]: 0.1 ng/mL
- concentration in plasma of lercanidipine (S + R) ([4]; 0.5 h, Dog 2, oral 3 mg/kg, hydrochloride, 3 mg/kg): 0.20 ng/mL
- concentration in plasma of lercanidipine (S + R) [4, 9]: 0.00 ng/mL
- concentration in plasma of lercanidipine (S + R) ([4]; 0.5 h, Dog 4, oral 3 mg/kg): 0.00 ng/mL
- concentration in plasma of lercanidipine (S + R) ([4]; 0.5 h, Dog 5, oral 3 mg/kg): 0.00 ng/mL
- concentration in plasma of lercanidipine (S + R) ([4]; 0.5 h, Dog 6, oral 3 mg/kg): 0.00 ng/mL
- concentration in plasma of lercanidipine (S + R) [4, 10]: 0.00 ng/mL
- concentration in plasma of lercanidipine (S + R) [4, 11]: 0.59 ng/mL
- concentration in plasma of lercanidipine (S + R) ([4]; 1 h, Dog 2, oral 3 mg/kg, hydrochloride, 3 mg/kg): 0.29 ng/mL
- concentration in plasma of lercanidipine (S + R) [4, 12]: 0.00 ng/mL
- concentration in plasma of lercanidipine (S + R) [4, 13]: 0.00 ng/mL
- concentration in plasma of lercanidipine (S + R) [4, 14]: 0.00 ng/mL
- concentration in plasma of lercanidipine (S + R) ([4]; 1 h, Dog 6, oral 3 mg/kg): 0.00 ng/mL
- concentration in plasma of lercanidipine (S + R) ([4]; 1 h, Mean (dog 2 not included), oral 3 mg/kg, hydrochloride, 3 mg/kg): 0.12 ng/mL
- concentration in plasma of lercanidipine (S + R) ([4]; 1.5 h, Dog 3, oral 3 mg/kg, hydrochloride, 3 mg/kg): 0.32 ng/mL
- concentration in plasma of lercanidipine (S + R) [4, 15]: 0.00 ng/mL
- concentration in plasma of lercanidipine (S + R) [4, 16]: 0.00 ng/mL
- concentration in plasma of lercanidipine (S + R) ([4]; 1.5 h, Mean (dog 2 not included), oral 3 mg/kg, hydrochloride, 3 mg/kg): 0.70 ng/mL
- concentration in plasma of lercanidipine (S + R) ([4]; 2 h, Dog 3, oral 3 mg/kg, hydrochloride, 3 mg/kg): 0.94 ng/mL
- concentration in plasma of lercanidipine (S + R) ([4]; 2 h, Dog 4, oral 3 mg/kg, hydrochloride, 3 mg/kg): 0.35 ng/mL
- concentration in plasma of lercanidipine (S + R) ([4]; 2 h, Dog 6, oral 3 mg/kg, hydrochloride, 3 mg/kg): 0.28 ng/mL
- concentration in plasma of lercanidipine (S + R) ([4]; 3 h, Dog 3, oral 3 mg/kg, hydrochloride, 3 mg/kg): 0.92 ng/mL
- concentration in plasma of lercanidipine (S + R) [4, 17]: 8.5 ± 6.5 ng/mL and 8.50 ng/mL
- concentration in plasma of lercanidipine (S + R) ([4]; 6 h, Dog 1, oral 3 mg/kg, hydrochloride, 3 mg/kg): 0.80 ng/mL
- concentration in plasma of lercanidipine (S + R) ([4]; 6 h, Dog 5, oral 3 mg/kg, hydrochloride, 3 mg/kg): 9.73 ng/mL
- concentration in plasma of lercanidipine (S + R) ([4]; 6 h, Dog 6, oral 3 mg/kg, hydrochloride, 3 mg/kg): 17.83 ng/mL
- Tmax ([4]; Dog 1, oral 3 mg/kg, hydrochloride, 3 mg/kg): 2.00 h
- Tmax [4, 18]: 4.00 h
- Tmax [4, 19]: 6.00 h
- Tmax [4, 20]: 3.00 h
- Tmax ([4]; Dog 5, oral 3 mg/kg, hydrochloride, 3 mg/kg): 3.00 h
- Tmax ([4]; Mean (n = 5, dog 2 not included), oral 3 mg/kg, hydrochloride, 3 mg/kg): 4.00 h

Structure (SMILES): COC(=O)C1=C(C)NC(C)=C(C(=O)OC(C)(C)CN(C)CCC(c2ccccc2)c2ccccc2)C1c1cccc([N+](=O)[O-])c1 (single isomer, unassigned) [Form (II), lercanidipine hydrochloride]
- stability [1]: good stability; also recorded: stable
- mass variation ([2]; whole RH range tested (0-95%)): < 0.05%
- bioequivalence to Form I [3]: not bioequivalent
- bioequivalence to Form I ([3]; listed as Form II): non equivalent
- AUC0−t, geom. least square mean [3]: 10.36 ng·h/mL
- Cmax, geom. least square mean [3]: 3.22 ng/mL
- tmax, median [3]: 2.50* h
- tmax Point Estimate (T/R), median difference ([3]; T = Form (II) tablet, R = Form (I) tablet (Zanedip 10 mg)): 0.75** h
- time of maximum concentration (tmax) compared to the other crystalline form [3]: delayed
- concentration in plasma of lercanidipine (S + R) ([4]; 0 h, Dog 1, oral 3 mg/kg): 0.00 ng/mL
- concentration in plasma of lercanidipine (S + R) ([4]; 0 h, Dog 2, oral 3 mg/kg): 0.00 ng/mL
- concentration in plasma of lercanidipine (S + R) ([4]; 0 h, Dog 3, oral 3 mg/kg): 0.00 ng/mL
- concentration in plasma of lercanidipine (S + R) ([4]; 0 h, Dog 4, oral 3 mg/kg): 0.00 ng/mL
- concentration in plasma of lercanidipine (S + R) ([4]; 0 h, Dog 5, oral 3 mg/kg): 0.00 ng/mL
- concentration in plasma of lercanidipine (S + R) ([4]; 0 h, Dog 6, oral 3 mg/kg): 0.00 ng/mL
- concentration in plasma of lercanidipine (S + R) [4, 7]: 0.00 ng/mL
- concentration in plasma of lercanidipine (S + R) [4, 8]: 0.00 ng/mL
- concentration in plasma of lercanidipine (S + R) [4, 9]: 6.99 ng/mL
- concentration in plasma of lercanidipine (S + R) ([4]; 0.5 h, Dog 4, oral 3 mg/kg): 0.00 ng/mL
- concentration in plasma of lercanidipine (S + R) ([4]; 0.5 h, Dog 5, oral 3 mg/kg): 0.00 ng/mL
- concentration in plasma of lercanidipine (S + R) ([4]; 0.5 h, Dog 6, oral 3 mg/kg): 0.00 ng/mL
- concentration in plasma of lercanidipine (S + R) [4, 10]: 1.40 ng/mL
- concentration in plasma of lercanidipine (S + R) [4, 11]: 0.00 ng/mL
- concentration in plasma of lercanidipine (S + R) [4, 12]: 16.61 ng/mL
- concentration in plasma of lercanidipine (S + R) [4, 13]: 5.50 ng/mL
- concentration in plasma of lercanidipine (S + R) [4, 14]: 3.28 ng/mL
- concentration in plasma of lercanidipine (S + R) ([4]; 1 h, Dog 6, oral 3 mg/kg): 0.00 ng/mL
- concentration in plasma of lercanidipine (S + R) ([4]; 1.5 h, Dog 1, oral 3 mg/kg, hydrochloride, 3 mg/kg): 0.23 ng/mL
- concentration in plasma of lercanidipine (S + R) [4, 15]: 35.43 ng/mL
- concentration in plasma of lercanidipine (S + R) [4, 16]: 3.49 ng/mL
- concentration in plasma of lercanidipine (S + R) ([4]; 2 h, Dog 1, oral 3 mg/kg, hydrochloride, 3 mg/kg): 7.63 ng/mL
- concentration in plasma of lercanidipine (S + R) ([4]; 3 h, Dog 4, oral 3 mg/kg, hydrochloride, 3 mg/kg): 28.36 ng/mL
- concentration in plasma of lercanidipine (S + R) ([4]; 3 h, Dog 5, oral 3 mg/kg, hydrochloride, 3 mg/kg): 40.57 ng/mL
- concentration in plasma of lercanidipine (S + R) ([4]; 3 h, Dog 6, oral 3 mg/kg, hydrochloride, 3 mg/kg): 14.10 ng/mL
- concentration in plasma of lercanidipine (S + R) ([4]; 4 h, Dog 3, oral 3 mg/kg, hydrochloride, 3 mg/kg): 14.10 ng/mL
- concentration in plasma of lercanidipine (S + R) ([4]; 4 h, Dog 5, oral 3 mg/kg, hydrochloride, 3 mg/kg): 23.66 ng/mL
- concentration in plasma of lercanidipine (S + R) [4, 17]: 10.9 ± 6.8 ng/mL
- concentration in plasma of lercanidipine (S + R) ([4]; 6 h, Dog 2, oral 3 mg/kg, hydrochloride, 3 mg/kg): 4.50 ng/mL
- Tmax [4, 18]: 1.50 h
- Cmax [4, 19]: 19.78 ng/mL
- Cmax [4, 20]: 52.64 ng/mL
- Cmax ([4]; Dog 6, oral 3 mg/kg, hydrochloride, 3 mg/kg): 18.56 ng/mL

Structure (SMILES): COC(=O)C1=C(C)NC(C)=C(C(=O)OC(C)(C)CN(C)CCC(c2ccccc2)c2ccccc2)C1c1cccc([N+](=O)[O-])c1 (stereo not drawn) [Lercanidipine, methyl 1,1,N-trimethyl-N-(3,3-diphenylpropyl)-2-aminoethyl 1,4-dihydro-2,6-dimethyl-4-(3-nitrophenyl)pyridine-3,5-dicarboxylate]
- response to high K+ after the drug has been removed [5]: attenuated
- time of peak plasma levels following dosing [6]: 2 to 3 h
